Columns and labels:
[1] = biological target: Galectin-3 (Homo sapiens) (UniProt P17931); assay: Binding affinity to recombinant human galectin-3 carbohydrate recognition domain expressed in Escherichia coli BL21 (DE3) cells assessed as change in entropy by Nano-ITC analysis
[2] = biological target: Galectin-3 (Homo sapiens) (UniProt P17931); assay: Binding affinity to recombinant human galectin-3 carbohydrate recognition domain expressed in Escherichia coli BL21 (DE3) cells assessed as change in enthalpy by Nano-ITC analysis
[3] = biological target: Galectin-3 (Homo sapiens) (UniProt P17931); assay: Binding affinity to recombinant human galectin-3 carbohydrate recognition domain expressed in Escherichia coli BL21 (DE3) cells assessed as gibbs free energy change by Nano-ITC analysis

Galectin-3 (Homo sapiens), sequence (P17931 whole entry, the tested form may be a part): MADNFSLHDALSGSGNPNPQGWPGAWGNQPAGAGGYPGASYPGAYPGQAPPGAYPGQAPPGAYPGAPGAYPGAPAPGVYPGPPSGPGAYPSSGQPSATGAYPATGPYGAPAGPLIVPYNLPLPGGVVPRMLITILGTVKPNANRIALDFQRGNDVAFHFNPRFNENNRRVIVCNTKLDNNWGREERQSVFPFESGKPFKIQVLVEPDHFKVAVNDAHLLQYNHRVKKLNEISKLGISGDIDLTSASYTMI

| Compound | -TdeltaS [1] [kcal/mol] | deltaH [2] [kcal/mol] | deltaG [3] [kcal/mol] |
| --- | --- | --- | --- |
| NC(=O)[C@@H]1O[C@H](CO)[C@H](O)[C@H](O)[C@@H]1S[C@@H]1O[C@H](CO)[C@H](O)[C@H](O)[C@H]1O | 0.0478 | – | – |
| NC(=O)[C@@H]1O[C@H](CO)[C@@H](O)[C@H](O)[C@@H]1S[C@@H]1O[C@H](CO)[C@H](O)[C@H](O)[C@H]1O | 1.15 | -7.74 | – |
| COC(=O)[C@@H]1O[C@H](CO)[C@H](O)[C@H](O)[C@@H]1S[C@@H]1O[C@H](CO)[C@H](O)[C@H](O)[C@H]1O | 1.24 | -7.72 | – |
| OC[C@H]1O[C@@H](S[C@@H]2CO[C@H](CO)[C@H](O)[C@@H]2O)[C@H](O)[C@@H](O)[C@H]1O | 0.0956 | -6.48 | – |

More lines, now with the values ahead:

| -TdeltaS [1] [kcal/mol] | deltaH [2] [kcal/mol] | deltaG [3] [kcal/mol] | Compound |
| --- | --- | --- | --- |
| -0.485 | -5.47 | -5.95 | LACTOSE, ANHYDROUS |
| -1.21 | -4.73 | – | OC[C@H]1O[C@@H](S[C@@H]2O[C@H](CO)[C@H](O)[C@H](O)[C@H]2O)[C@H](O)[C@@H](O)[C@H]1O |
